Source: patent US11891634B2, “PDE5A destabilizing domains” (The Board of Trustees of the Leland Stanford Junior …, priority 2017, dated 2024)

Tests used:
Type in all cases: cell-based, human
[1] = tested on: HCT 116 cells transduced with the PDE5A DD derived GFP constructs; test: Response to Vardenafil, GFP expression by FACS in HCT116; conditions: for MFI / Stabilization ratio with Vardenafil: 48 hours, HCT116
How it was run: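 HCT116 cells stably carrying lentiviral AcGFP fusions of PDE5A (535-860) mutants, sorted on mCherry, got DMSO or Vardenafil (10 μM, or 0.002–30 μM) for 48 h, and GFP MFI was read by flow cytometry. Basal expression is untreated GFP over parental autofluorescence; the stabilization ratio is treated over untreated MFI.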

[2] = tested on: HCT 116 cells transduced with the PDE5A DD derived GFP constructs; test: Response to Tadalafil, GFP expression by FACS in HCT116; conditions: for MFI / Stabilization ratio with Tadalafil: 48 hours, HCT116
How it was run: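 HCT116 cells stably transduced (mCherry-sorted) with lentiviral PDE5A DD–AcGFP constructs, exposed to DMSO or Tadalafil 0.01–100 μM for 48 hrs. GFP mean fluorescence by FACS; stabilization ratio = ligand vs no-ligand signal, basal expression = no-ligand signal vs parental autofluorescence.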

[3] = tested on: HCT116 cells transduced with the constructs; test: Response to Sildenafil, GFP expression by flow cytometry in HCT116; conditions: for MFI / Stabilization ratio with Sildenafil: 48 hours, HCT116
How it was run: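 HCT116 cells stably expressing AcGFP-fused destabilizing domains from a lentiviral mCherry-marked vector (sorted on mCherry) were exposed to sildenafil at 0.01–100 μM for 48 hours. GFP mean fluorescence intensity was measured by flow cytometry.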

## PDE5AN (#53): N-terminal DD 535-860 of PDE5A (E536G, Q589R, C839S), SEQ ID NO. 67, fused to AcGFP
[1]; DMSO (no Vardenafil)
  MFI: 14196
[1]; Table 10, GFP signal without ligand / auto fluorescence of parental HCT-116
  Basal (DMSO/Parental): 14.0
[1]; Table 15, MFI with DMSO / parental HCT116, Vardenafil experiment
  Basal: 7.27
[1]; Vardenafil 0.002 μM vs DMSO
  Stabilization ratio with Vardenafil: 1.0
[1]; Vardenafil 0.002 μM
  MFI: 14117
[1]; Vardenafil 0.005 μM vs DMSO
  Stabilization ratio with Vardenafil: 1.0
[1]; Vardenafil 0.005 μM
  MFI: 14485
[1]; Vardenafil 0.014 μM vs DMSO
  Stabilization ratio with Vardenafil: 1.1
[1]; Vardenafil 0.014 μM
  MFI: 15735
[1]; Vardenafil 0.041 μM vs DMSO
  Stabilization ratio with Vardenafil: 1.2
[1]; Vardenafil 0.041 μM
  MFI: 17260
[1]; Vardenafil 0.123 μM vs DMSO
  Stabilization ratio with Vardenafil: 1.8
[1]; Vardenafil 0.123 μM
  MFI: 25577
[1]; Vardenafil 0.370 μM vs DMSO
  Stabilization ratio with Vardenafil: 3.1
[1]; Vardenafil 0.370 μM
  MFI: 43744
[1]; Vardenafil 1.111 μM vs DMSO
  Stabilization ratio with Vardenafil: 5.7
[1]; Vardenafil 1.111 μM
  MFI: 81455
[1]; Vardenafil 3.333 μM vs DMSO
  Stabilization ratio with Vardenafil: 9.2
[1]; Vardenafil 3.333 μM
  MFI: 131016
[1]; Vardenafil 10 μM vs DMSO
  Stabilization ratio with Vardenafil: 12.2
[1]; Vardenafil 10 μM
  MFI: 173576
[1]; Vardenafil 30 μM vs DMSO
  Stabilization ratio with Vardenafil: 13.3
[1]; Vardenafil 30 μM
  MFI: 188519
[2]; DMSO (no Tadalafil)
  MFI: 12071
[2]; Table 21, MFI with DMSO / parental HCT116, Tadalafil experiment
  Basal expression: 9.43
[2]; Tadalafil 0.01 μM vs DMSO
  Stabilization ratio with Tadalafil: 1.0
[2]; Tadalafil 0.01 μM
  MFI: 11635
[2]; Tadalafil 0.02 μM vs DMSO
  Stabilization ratio with Tadalafil: 1.0
[2]; Tadalafil 0.02 μM
  MFI: 11690
[2]; Tadalafil 0.05 μM vs DMSO
  Stabilization ratio with Tadalafil: 1.0
[2]; Tadalafil 0.05 μM
  MFI: 12100
[2]; Tadalafil 0.14 μM vs DMSO
  Stabilization ratio with Tadalafil: 1.0
[2]; Tadalafil 0.14 μM
  MFI: 12331
[2]; Tadalafil 0.41 μM vs DMSO
  Stabilization ratio with Tadalafil: 1.1
[2]; Tadalafil 0.41 μM
  MFI: 13422
[2]; Tadalafil 1.23 μM vs DMSO
  Stabilization ratio with Tadalafil: 1.3
[2]; Tadalafil 1.23 μM
  MFI: 16255
[2]; Tadalafil 3.7 μM vs DMSO
  Stabilization ratio with Tadalafil: 2.0
[2]; Tadalafil 3.7 μM
  MFI: 24201
[2]; Tadalafil 11.11 μM vs DMSO
  Stabilization ratio with Tadalafil: 3.5
[2]; Tadalafil 11.11 μM
  MFI: 42644
[2]; Tadalafil 33.33 μM vs DMSO
  Stabilization ratio with Tadalafil: 6.6
[2]; Tadalafil 33.33 μM
  MFI: 80088
[2]; Tadalafil 100 μM vs DMSO
  Stabilization ratio with Tadalafil: 8.6
[2]; Tadalafil 100 μM
  MFI: 104032
[3]; DMSO (no Sildenafil)
  MFI: 13747
[3]; Sildenafil 0.01 μM vs DMSO
  Stabilization ratio with Sildenafil: 0.9
[3]; Sildenafil 0.01 μM
  MFI: 12801
[3]; Sildenafil 0.02 μM vs DMSO
  Stabilization ratio with Sildenafil: 1.0
[3]; Sildenafil 0.02 μM
  MFI: 14045
[3]; Sildenafil 0.05 μM vs DMSO
  Stabilization ratio with Sildenafil: 1.0
[3]; Sildenafil 0.05 μM
  MFI: 13801
[3]; Sildenafil 0.14 μM vs DMSO
  Stabilization ratio with Sildenafil: 1.0
[3]; Sildenafil 0.14 μM
  MFI: 14048
[3]; Sildenafil 0.41 μM vs DMSO
  Stabilization ratio with Sildenafil: 1.2
[3]; Sildenafil 0.41 μM
  MFI: 16175
[3]; Sildenafil 1.23 μM vs DMSO
  Stabilization ratio with Sildenafil: 1.5
[3]; Sildenafil 1.23 μM
  MFI: 20410
[3]; Sildenafil 3.70 μM vs DMSO
  Stabilization ratio with Sildenafil: 2.2
[3]; Sildenafil 3.70 μM
  MFI: 30372
[3]; Sildenafil 11.11 μM vs DMSO
  Stabilization ratio with Sildenafil: 4.3
[3]; Sildenafil 11.11 μM
  MFI: 59723
[3]; Sildenafil 33.33 μM vs DMSO
  Stabilization ratio with Sildenafil: 7.2
[3]; Sildenafil 33.33 μM
  MFI: 99558
[3]; Sildenafil 100.00 μM vs DMSO
  Stabilization ratio with Sildenafil: 8.6
[3]; Sildenafil 100.00 μM
  MFI: 117792
[3]; Table 26, MFI with DMSO / parental HCT116, Sildenafil experiment
  Basal expression: 10.7
